Assay results taken from ChEMBL document CHEMBL4431361, “Development of indole sulfonamides as cannabinoid receptor negative allosteric modulators” (Bioorg Med Chem Lett, 2016).

Experiments:
[1] = Ratio of drug level in […] brain to blood at 30mg/kg, ip after 1 hr by HPLC/MS/MS method; format: ADME, organism-based
[2] = Apparent permeability of the compound at 10 uM after 5 hrs by PAMPA; format: ADME
Cannabinoid receptor 1 = Cannabinoid receptor 1 (Homo sapiens, UniProt P21554); experiment: Negative allosteric modulation of human CB1 receptor expressed in CHO-K1 cells assessed as inhibition of CP55940 induced beta arrestin recruitment preincubated for 30 mins followed by addition of CP55940 for 90 mins by chemiluminescence assay; format: functional, cell-based
Cannabinoid receptor 1, sequence (P21554 whole entry): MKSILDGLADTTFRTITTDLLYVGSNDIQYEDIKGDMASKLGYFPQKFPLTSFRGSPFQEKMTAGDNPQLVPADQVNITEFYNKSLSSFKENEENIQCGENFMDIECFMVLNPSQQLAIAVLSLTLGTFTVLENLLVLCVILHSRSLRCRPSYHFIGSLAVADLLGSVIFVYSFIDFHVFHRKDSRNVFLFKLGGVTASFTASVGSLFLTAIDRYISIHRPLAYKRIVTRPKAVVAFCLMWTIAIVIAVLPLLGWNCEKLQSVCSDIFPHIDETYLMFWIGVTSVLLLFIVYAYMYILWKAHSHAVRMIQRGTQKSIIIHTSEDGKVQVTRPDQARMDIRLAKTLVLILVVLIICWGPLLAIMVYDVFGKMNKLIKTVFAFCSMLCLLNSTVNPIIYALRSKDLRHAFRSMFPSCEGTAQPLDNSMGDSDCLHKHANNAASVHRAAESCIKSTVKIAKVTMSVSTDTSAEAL

[3] = Tmax in NMRI mouse at 10 mg/kg, po; format: ADME, organism-based; settings: in vivo
[4] = AUC (0 to 8 hrs) in NMRI mouse at 10 mg/kg, po; format: ADME, organism-based; set-up: time < 8 hr, dose 10 mg/kg, route oral; settings: in vivo
[5] = Ratio of drug level in NMRI mouse brain to blood after 2 hrs; format: ADME, tissue-based
[6] = Cmax in NMRI mouse blood at 10 mg/kg, po; format: ADME, organism-based; set-up: dose 10 mg/kg, route oral
[7] = Half life in NMRI mouse at 10 mg/kg, po; format: ADME, organism-based; settings: in vivo
[8] = Half life in human liver microsomes at 3 uM in presence of NADPH by LC-MS/MS analysis; format: ADME, Microsome
[9] = Ratio of drug level in NMRI mouse brain to blood after 4 hrs; format: ADME, tissue-based
[10] = Half life in rat liver microsomes at 3 uM in presence of NADPH by LC-MS/MS analysis; format: ADME, Microsome

Structure (SMILES)	IC50 (Cannabinoid receptor 1) [nM]	further results
CCc1c(C(=O)NCCc2ccc(N3CCCCC3)cc2)[nH]c2ccc(Cl)cc12	2	Kp at 1 h [1]: 1.1; Papp at 5 h, 10 µM [2]: 1.23 ×10⁻⁶ cm/s
CN(C)c1ccc(-c2ccc(CNS(=O)(=O)c3cc4ccccc4[nH]3)cc2)cc1	3	
Cc1c(S(=O)(=O)NCCCN2CCOCC2)[nH]c2ccccc12	> 1000	
CCc1c(S(=O)(=O)NCCc2ccc(N(C)C)cc2)[nH]c2ccc(Cl)cc12	130	
O=S(=O)(NCc1ccc(-c2ccc(F)cc2F)cn1)c1cc2cc(Cl)ccc2[nH]1	3	Tmax [3]: 60 min; AUC(0-t) at 8 h [4]: 4700 ng·h/mL; Kp at 2 h [5]: 3.3; Papp at 5 h, 10 µM [2]: 53.8 ×10⁻⁶ cm/s; Cmax [6]: 848 ng/mL; half-life [7]: 180 min
Cc1ccc(CNS(=O)(=O)c2[nH]c3ccccc3c2C)cc1	200	half-life at 3 µM [8]: 7 min
CCc1c(S(=O)(=O)NCCc2ccc(N3CCOCC3)cc2)[nH]c2ccc(Cl)cc12	500	half-life at 3 µM [8]: 10 min
CS(=O)(=O)c1ccc(-c2ccc(CNS(=O)(=O)c3cc4ccccc4[nH]3)cc2)cc1	15	
Cc1c(S(=O)(=O)NCCN2CCOCC2)[nH]c2ccccc12	> 1000	
COc1ccc(CNS(=O)(=O)c2cc3ccccc3[nH]2)cc1	200 to 400	half-life at 3 µM [8]: 2 min
O=S(=O)(NCc1ccc(-c2ccccc2)cc1)c1cc2ccc(F)cc2[nH]1	5	
O=C(O)c1ccc(-c2ccc(CNS(=O)(=O)c3cc4ccccc4[nH]3)cc2)cc1	> 1000	
O=S(=O)(NCc1cccc(-c2ccc(F)cc2)c1)c1cc2ccccc2[nH]1	137	
O=S(=O)(NCc1ccc(-c2ccc(F)nc2F)cc1)c1cc2cc(Cl)ccc2[nH]1	4	Kp at 4 h [9]: 0.8; Tmax [3]: 240 min; AUC(0-t) at 8 h [4]: 4380 ng·h/mL; Papp at 5 h, 10 µM [2]: 141 ×10⁻⁶ cm/s; Cmax [6]: 672 ng/mL; half-life [7]: 474 min
Cc1c(S(=O)(=O)NCc2ccc(Cl)cc2)[nH]c2ccccc12	400	
COc1ccc(CNS(=O)(=O)c2cc3cc(OC)ccc3[nH]2)cc1	400	
CCOc1ccc(-c2ccc(CNS(=O)(=O)c3cc4ccccc4[nH]3)cc2)cn1	10	
O=S(=O)(NCc1ccc(-c2ccc(F)cc2)cc1F)c1cc2cc(Cl)ccc2[nH]1	21	half-life at 3 µM [10]: 112 min; half-life at 3 µM [8]: 146 min
Cc1c(S(=O)(=O)NCCc2ccc(N3CCCCC3)cc2)[nH]c2ccccc12	200	
O=S(=O)(NCc1ccc(-c2ccc(F)cc2)cn1)c1cc2cc(Br)ccc2[nH]1	9	half-life at 3 µM [10]: 25 min
NC(=O)c1cccc(-c2ccc(CNS(=O)(=O)c3cc4ccccc4[nH]3)cc2)c1	300	

Structure (SMILES)	IC50 (Cannabinoid receptor 1) [nM]	further results
Cc1c(S(=O)(=O)NCc2cccc(Cl)c2)[nH]c2ccccc12	800	
COc1ccc2[nH]c(S(=O)(=O)NCc3ccc(-c4ccc(OC(F)(F)F)cc4)cc3F)cc2c1	40	half-life at 3 µM [10]: < 15 min
COc1ccc2[nH]c(S(=O)(=O)NCc3ccc(-c4ccc(F)nc4)cc3)cc2c1	3	half-life at 3 µM [10]: < 15 min; half-life at 3 µM [8]: < 15 min
O=S(=O)(NCc1ccc(-c2ccccc2)cc1)c1[nH]c2ccccc2c1CO	12	
O=S(=O)(NCc1ccc(-c2ccc(F)cc2F)cc1)c1cc2cc(Cl)ccc2[nH]1	4	half-life at 3 µM [10]: 84 min; half-life at 3 µM [8]: 111 min
COc1ccc(CNS(=O)(=O)c2[nH]c3ccccc3c2C)cc1	200	
COc1ccc(CNS(=O)(=O)c2[nH]c3ccc(Cl)cc3c2C)cc1	500	
Cc1c(S(=O)(=O)NCc2ccc(C(F)(F)F)cc2)[nH]c2ccccc12	250	
Cc1c(S(=O)(=O)NCCc2ccccc2)[nH]c2ccccc12	200 to 1000	half-life at 3 µM [8]: 3 min
Cc1c(S(=O)(=O)NCC2CCCCC2)[nH]c2ccccc12	> 1000	
COc1ccc2[nH]c(S(=O)(=O)NCc3ccc(-c4ccc(CO)cc4)cc3)cc2c1	112	
Cc1c(S(=O)(=O)NCCc2ccc(N3CCOCC3)cc2)[nH]c2ccccc12	> 1000	
Cc1c(S(=O)(=O)NCc2ccccn2)[nH]c2ccccc12	> 1000	
Cc1cc(-c2ccc(F)cc2)ccc1CNS(=O)(=O)c1cc2cc(Cl)ccc2[nH]1	> 1000	
O=S(=O)(NCc1ccc(-c2ccccc2)cc1)c1cc2ccccc2[nH]1	2	
O=S(=O)(NCc1ccc(-c2ccccc2)cc1)c1cc2cc(Br)ccc2[nH]1	6	half-life at 3 µM [10]: < 15 min
COCc1c(S(=O)(=O)NCc2ccc(-c3ccccc3)cc2)[nH]c2ccccc12	10	
COc1ccc2[nH]c(S(=O)(=O)NCc3ccc(-c4ccc(C#N)cc4)cc3)cc2c1	8	half-life at 3 µM [10]: 26 min
CC(NS(=O)(=O)c1cc2ccccc2[nH]1)c1ccc(-c2ccc(F)cc2)cc1 (configuration not stated)	41	
O=S(=O)(NCc1ccc(-c2cccnc2)cc1)c1cc2ccccc2[nH]1	7	half-life at 3 µM [10]: < 15 min
O=S(=O)(NCc1ccc(-c2ccc(F)cc2)cc1)c1cc2ccccc2[nH]1	1	half-life at 3 µM [10]: < 15 min

Structure (SMILES)	IC50 (Cannabinoid receptor 1) [nM]	further results
O=S(=O)(NCc1ccc(-c2ccc(F)cc2)cc1)c1cc2cc(Br)ccc2[nH]1	12	half-life at 3 µM [10]: 130 min
CS(=O)(=O)c1ccc(-c2ccc(CNS(=O)(=O)c3cc4cc(Cl)ccc4[nH]3)cc2)cc1	15	half-life at 3 µM [10]: 36 min; half-life at 3 µM [8]: 41 min
Nc1ccc(-c2ccc(CNS(=O)(=O)c3cc4cc(Cl)ccc4[nH]3)cc2)cn1	85	
Cc1c(S(=O)(=O)NCc2ccccc2)[nH]c2ccccc12	> 1000	
Cc1c(S(=O)(=O)NCc2cccnc2)[nH]c2ccccc12	> 1000	
Cc1c(S(=O)(=O)NCCc2ccc(N(C)C)cc2)[nH]c2ccccc12	300	half-life at 3 µM [8]: 13 min
CCc1c(S(=O)(=O)NCCc2ccc(N3CCCCC3)cc2)[nH]c2ccc(Cl)cc12	120	half-life at 3 µM [8]: 14 min
O=S(=O)(NCc1ccc(-c2ccc(F)cc2F)cn1)c1cc2cc(Br)ccc2[nH]1	4	half-life at 3 µM [10]: 33 min; half-life at 3 µM [8]: 53 min
CCc1c(S(=O)(=O)NCc2ccc(Cl)cc2)[nH]c2ccc(Cl)cc12	> 1000	
Cc1cc(CNS(=O)(=O)c2cc3cc(Cl)ccc3[nH]2)ccc1-c1ccc(F)cc1	> 1000	
Cc1ccc(-c2ccc(CNS(=O)(=O)c3cc4ccccc4[nH]3)cc2)cc1	3	
O=S(=O)(NCc1ccc(-c2ccc(F)nc2)cc1)c1cc2ccc(Cl)cc2[nH]1	5	half-life at 3 µM [10]: 23 min; half-life at 3 µM [8]: 22 min; Kp at 2 h [5]: 2.7
O=S(=O)(NCc1ccc(-c2ccccc2)cc1)c1cc2ccc(Cl)cc2[nH]1	4	half-life at 3 µM [10]: < 15 min
O=S(=O)(NCc1ccc(-c2ccsc2)cc1)c1cc2ccccc2[nH]1	12	
COc1cc(-c2ccc(CNS(=O)(=O)c3cc4ccccc4[nH]3)cc2)ccc1O	33	
COc1ccc(-c2ccc(CNS(=O)(=O)c3cc4ccccc4[nH]3)cc2)cc1	2	
Cc1c(S(=O)(=O)NCc2ccc(Cl)c(Cl)c2)[nH]c2ccccc12	800	
Cc1c(S(=O)(=O)NCc2ccc(-c3ccccc3)cc2)[nH]c2ccccc12	8	
COc1ccc(-c2ccc(CNS(=O)(=O)c3cc4ccccc4[nH]3)cc2)c(OC)c1	22	
